Data as given in PMC10599993, “The PTPN2/PTPN1 inhibitor ABBV-CLS-484 unleashes potent anti-tumour immunity” (Nature, 2023).

Key:
Assay in all cases: biochemical
Parameters in all cases: Safety pharmacology off-target panel at Eurofins, radioligand binding with agonist or antagonist radioligand (Supplementary Table 2)
[1] = biological target: T1, CB1 (Homo sapiens, UniProt P21554); details: agonist radioligand
T1 construct: gene CNR1
Protocol: (§1) Wide-range phosphatase, kinase and preclinical safety pharmacology off-target activity screens were conducted at Eurofins (Extended Data Table 5 and Supplementary Tables 1 and 2). A small phosphatase panel was developed at AbbVie to assess IC50 values on select phosphatases. The following enzymes used in the phosphatase selectivity panel were purchased from Eurofins: PTPN1 (PTP1B; 14–621), PTPN2 (TC-PTP; 14–646), PTPN9 (14–592), SHP1 (14–591) and SHP2 (14–622). The catalytic activity of the phosphatase was monitored using the small-molecule substrate DiFMUP (ThermoFisher) in a fluorescence assay format. In brief, the phosphatase reactions were performed at room temperature in the following assay buffer: 50 mM HEPES, pH 7.2, 100 mM NaCl, 1 mM EDTA, 0.005% Tween-20 and 5 mM TCEP. Each phosphatase was incubated with increasing concentrations of AC484 for 5 min, after which the substrate DiFMUP was added and incubated at 25 °C for 30 min. The final concentration of the enzyme and substrate was maintained at 0.5 nM and 5 μM, respectively, in all the assays. The reaction was then quenched by the addition of a 100 μM solution of bpV(Phen) (Enzo Life Sciences). The fluorescence signal was monitored using an Envision microplate reader (Perkin-Elmer) using excitation and emission wavelengths of 340 nm and 450 nm, respectively. The dose–response curves for the inhibitors were analysed using normalized IC50 regression curve fitting with control-based normalization. Supplementary file 41586_2023_6575_MOESM4_ESM.xlsx: Supplementary Table 2 AC484 receptor selectivity screen.

[2] = biological target: T2, V1a (Homo sapiens, UniProt P37288); details: agonist radioligand
T2 construct: gene AVPR1A
Protocol: as §1

[3] = biological target: T3, Motilin (Homo sapiens, UniProt O43193); details: agonist radioligand
T3 construct: gene MLNR
Protocol: as §1

[4] = biological target: T4, A2A (h) (Homo sapiens, UniProt P29274); details: agonist radioligand
T4 construct: gene ADORA2A
Protocol: as §1

[5] = biological target: T5, 5-HT2C (Homo sapiens, UniProt P28335); details: antagonist radioligand
T5 construct: gene HTR2C
Protocol: as §1

[6] = biological target: T6, M5 (Homo sapiens, UniProt P08912); details: antagonist radioligand
T6 construct: gene CHRM5
Protocol: as §1

[7] = biological target: T7, AT1 (h) (Homo sapiens, UniProt P30556); details: antagonist radioligand
T7 construct: gene AGTR1
Protocol: as §1

[8] = biological target: T8, CCK1 (CCKA) (Homo sapiens, UniProt P32238); details: agonist radioligand
T8 construct: gene CCKAR
Protocol: as §1

[9] = biological target: T9, A3 (h) (Homo sapiens, UniProt P0DMS8); details: agonist radioligand
T9 construct: gene ADORA3
Protocol: as §1

[10] = biological target: AR (Homo sapiens, UniProt P10275); details: agonist radioligand
Protocol: as §1

[11] = biological target: T10, Estrogen ER alpha (Homo sapiens, UniProt P03372); details: agonist radioligand
T10 construct: gene ESR1
Protocol: as §1

[12] = biological target: T11, Dopamine transporter (Homo sapiens, UniProt Q01959); details: antagonist radioligand
T11 construct: gene SLC6A3
Protocol: as §1

[13] = biological target: T12, ETB (Homo sapiens, UniProt P24530); details: agonist radioligand
T12 construct: gene EDNRB
Protocol: as §1

[14] = biological target: T13, M2 (Homo sapiens, UniProt P08172); details: antagonist radioligand
T13 construct: gene CHRM2
Protocol: as §1

[15] = biological target: T14, NK2 (Homo sapiens, UniProt P21452); details: agonist radioligand
T14 construct: gene TACR2
Protocol: as §1

[16] = biological target: T15, m (MOP) (Homo sapiens, UniProt P35372); details: agonist radioligand
T15 construct: gene OPRM1; MOP
Protocol: as §1

[17] = biological target: T16, CB2 (Homo sapiens, UniProt P34972); details: agonist radioligand
T16 construct: gene CNR2
Protocol: as §1

[18] = biological target: T17, M3 (Homo sapiens, UniProt P20309); details: antagonist radioligand
T17 construct: gene CHRM3
Protocol: as §1

[19] = biological target: T18, b1 (h) (Homo sapiens, UniProt P08588); details: agonist radioligand
T18 construct: gene ADRB1
Protocol: as §1

Measured: AC50

T4 sequence (P29274 whole entry): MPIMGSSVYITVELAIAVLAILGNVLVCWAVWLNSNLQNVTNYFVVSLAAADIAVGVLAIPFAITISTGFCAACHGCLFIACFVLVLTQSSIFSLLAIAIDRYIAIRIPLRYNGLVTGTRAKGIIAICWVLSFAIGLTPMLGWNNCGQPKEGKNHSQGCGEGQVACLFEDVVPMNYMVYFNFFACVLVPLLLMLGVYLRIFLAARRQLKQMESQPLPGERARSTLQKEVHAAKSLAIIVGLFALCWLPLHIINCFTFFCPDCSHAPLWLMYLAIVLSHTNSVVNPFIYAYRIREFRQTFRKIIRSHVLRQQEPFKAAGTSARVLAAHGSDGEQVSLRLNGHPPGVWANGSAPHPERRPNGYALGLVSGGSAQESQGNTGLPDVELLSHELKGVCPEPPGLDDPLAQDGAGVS
T14 sequence (P21452 whole entry): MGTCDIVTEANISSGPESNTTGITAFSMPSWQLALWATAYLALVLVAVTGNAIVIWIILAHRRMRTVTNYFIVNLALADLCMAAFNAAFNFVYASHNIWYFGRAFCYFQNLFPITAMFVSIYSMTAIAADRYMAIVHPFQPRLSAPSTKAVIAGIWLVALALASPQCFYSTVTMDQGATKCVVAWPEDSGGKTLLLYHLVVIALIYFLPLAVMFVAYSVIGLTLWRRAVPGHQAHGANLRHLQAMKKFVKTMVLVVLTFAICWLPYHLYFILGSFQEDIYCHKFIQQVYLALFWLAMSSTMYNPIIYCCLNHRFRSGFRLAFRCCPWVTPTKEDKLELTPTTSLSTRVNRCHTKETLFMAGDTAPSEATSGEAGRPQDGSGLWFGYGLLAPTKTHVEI
T16 sequence (P34972 whole entry): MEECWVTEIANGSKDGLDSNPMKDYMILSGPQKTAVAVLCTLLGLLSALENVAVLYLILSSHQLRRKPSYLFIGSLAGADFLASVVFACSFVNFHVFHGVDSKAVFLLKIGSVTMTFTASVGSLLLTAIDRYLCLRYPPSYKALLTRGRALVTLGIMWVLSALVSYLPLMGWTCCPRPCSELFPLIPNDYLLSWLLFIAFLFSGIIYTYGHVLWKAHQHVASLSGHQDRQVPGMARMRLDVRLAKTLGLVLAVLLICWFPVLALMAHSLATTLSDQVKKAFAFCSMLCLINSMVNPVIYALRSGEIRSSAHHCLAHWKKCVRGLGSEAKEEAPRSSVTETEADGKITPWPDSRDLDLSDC
T7 sequence (P30556 whole entry): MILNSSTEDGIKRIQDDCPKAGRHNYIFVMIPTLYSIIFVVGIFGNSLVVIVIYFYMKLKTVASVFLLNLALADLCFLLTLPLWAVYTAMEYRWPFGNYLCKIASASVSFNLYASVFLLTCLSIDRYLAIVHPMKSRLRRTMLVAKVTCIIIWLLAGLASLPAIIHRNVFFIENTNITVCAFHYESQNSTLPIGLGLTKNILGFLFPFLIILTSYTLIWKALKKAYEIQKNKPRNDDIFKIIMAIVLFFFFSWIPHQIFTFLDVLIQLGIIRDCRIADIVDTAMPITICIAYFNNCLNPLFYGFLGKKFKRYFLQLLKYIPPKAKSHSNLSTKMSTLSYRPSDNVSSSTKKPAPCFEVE
T6 sequence (P08912 whole entry): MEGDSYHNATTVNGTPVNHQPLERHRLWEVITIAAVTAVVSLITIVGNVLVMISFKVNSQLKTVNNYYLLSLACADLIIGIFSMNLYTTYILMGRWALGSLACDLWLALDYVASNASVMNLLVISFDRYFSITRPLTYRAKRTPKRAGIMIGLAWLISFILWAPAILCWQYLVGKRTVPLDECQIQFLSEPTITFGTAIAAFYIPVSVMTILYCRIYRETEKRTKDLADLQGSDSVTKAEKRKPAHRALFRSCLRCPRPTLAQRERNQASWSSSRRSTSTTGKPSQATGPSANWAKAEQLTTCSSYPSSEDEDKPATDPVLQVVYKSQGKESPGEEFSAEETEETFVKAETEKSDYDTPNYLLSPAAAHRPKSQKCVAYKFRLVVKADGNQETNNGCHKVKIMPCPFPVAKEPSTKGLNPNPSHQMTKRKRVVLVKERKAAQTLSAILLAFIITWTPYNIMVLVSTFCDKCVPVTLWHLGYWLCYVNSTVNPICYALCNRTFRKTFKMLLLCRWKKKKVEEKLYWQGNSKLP
T18 sequence (P08588 whole entry): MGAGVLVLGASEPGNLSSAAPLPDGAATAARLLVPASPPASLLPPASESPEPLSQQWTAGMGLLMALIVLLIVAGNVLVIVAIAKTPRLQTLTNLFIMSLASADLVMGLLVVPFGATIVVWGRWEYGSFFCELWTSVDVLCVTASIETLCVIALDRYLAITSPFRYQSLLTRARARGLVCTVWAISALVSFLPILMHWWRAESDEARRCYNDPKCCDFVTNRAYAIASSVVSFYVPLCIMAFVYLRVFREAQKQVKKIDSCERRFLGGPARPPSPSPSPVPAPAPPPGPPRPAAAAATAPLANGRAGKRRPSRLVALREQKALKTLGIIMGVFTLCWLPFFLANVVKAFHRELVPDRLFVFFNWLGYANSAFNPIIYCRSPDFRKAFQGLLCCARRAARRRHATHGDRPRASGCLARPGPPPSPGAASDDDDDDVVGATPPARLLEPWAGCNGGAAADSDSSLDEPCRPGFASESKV
T12 sequence (P24530 whole entry): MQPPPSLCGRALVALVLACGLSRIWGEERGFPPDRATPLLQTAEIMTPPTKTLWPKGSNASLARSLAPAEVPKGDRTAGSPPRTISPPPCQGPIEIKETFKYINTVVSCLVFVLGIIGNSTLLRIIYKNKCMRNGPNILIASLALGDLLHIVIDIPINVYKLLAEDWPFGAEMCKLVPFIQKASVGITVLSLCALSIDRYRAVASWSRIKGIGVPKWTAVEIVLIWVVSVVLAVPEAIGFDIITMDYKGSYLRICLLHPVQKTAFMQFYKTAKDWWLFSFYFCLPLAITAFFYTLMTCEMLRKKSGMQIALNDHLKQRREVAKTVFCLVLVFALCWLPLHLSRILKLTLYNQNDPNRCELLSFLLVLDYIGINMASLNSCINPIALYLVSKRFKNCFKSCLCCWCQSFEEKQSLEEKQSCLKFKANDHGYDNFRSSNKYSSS
T8 sequence (P32238 whole entry): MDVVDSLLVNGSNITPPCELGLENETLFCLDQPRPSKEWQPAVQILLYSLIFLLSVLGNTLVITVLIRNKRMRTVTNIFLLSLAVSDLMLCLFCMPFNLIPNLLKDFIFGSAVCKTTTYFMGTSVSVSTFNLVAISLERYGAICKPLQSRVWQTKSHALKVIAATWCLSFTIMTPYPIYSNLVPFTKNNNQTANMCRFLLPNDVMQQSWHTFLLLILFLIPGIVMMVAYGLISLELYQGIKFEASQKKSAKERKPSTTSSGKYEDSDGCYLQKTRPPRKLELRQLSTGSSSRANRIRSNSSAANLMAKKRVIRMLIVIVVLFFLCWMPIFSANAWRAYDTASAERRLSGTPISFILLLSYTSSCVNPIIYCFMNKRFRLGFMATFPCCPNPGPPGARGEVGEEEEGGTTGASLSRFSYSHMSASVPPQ
T17 sequence (P20309 whole entry): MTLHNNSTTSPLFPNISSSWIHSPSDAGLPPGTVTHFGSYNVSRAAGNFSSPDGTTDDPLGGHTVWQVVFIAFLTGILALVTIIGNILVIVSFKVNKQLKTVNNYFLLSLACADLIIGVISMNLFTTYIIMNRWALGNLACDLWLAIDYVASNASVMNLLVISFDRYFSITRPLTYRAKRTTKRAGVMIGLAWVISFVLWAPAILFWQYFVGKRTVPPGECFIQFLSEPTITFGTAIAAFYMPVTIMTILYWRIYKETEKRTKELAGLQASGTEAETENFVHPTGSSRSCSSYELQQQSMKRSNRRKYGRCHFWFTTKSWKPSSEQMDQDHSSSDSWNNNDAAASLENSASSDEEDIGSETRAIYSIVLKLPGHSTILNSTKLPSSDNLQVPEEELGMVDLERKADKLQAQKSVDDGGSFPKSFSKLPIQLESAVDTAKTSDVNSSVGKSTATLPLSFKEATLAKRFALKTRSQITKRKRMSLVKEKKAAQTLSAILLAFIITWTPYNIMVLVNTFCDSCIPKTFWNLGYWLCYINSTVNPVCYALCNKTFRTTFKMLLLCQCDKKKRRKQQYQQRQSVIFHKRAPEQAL
T13 sequence (P08172 whole entry): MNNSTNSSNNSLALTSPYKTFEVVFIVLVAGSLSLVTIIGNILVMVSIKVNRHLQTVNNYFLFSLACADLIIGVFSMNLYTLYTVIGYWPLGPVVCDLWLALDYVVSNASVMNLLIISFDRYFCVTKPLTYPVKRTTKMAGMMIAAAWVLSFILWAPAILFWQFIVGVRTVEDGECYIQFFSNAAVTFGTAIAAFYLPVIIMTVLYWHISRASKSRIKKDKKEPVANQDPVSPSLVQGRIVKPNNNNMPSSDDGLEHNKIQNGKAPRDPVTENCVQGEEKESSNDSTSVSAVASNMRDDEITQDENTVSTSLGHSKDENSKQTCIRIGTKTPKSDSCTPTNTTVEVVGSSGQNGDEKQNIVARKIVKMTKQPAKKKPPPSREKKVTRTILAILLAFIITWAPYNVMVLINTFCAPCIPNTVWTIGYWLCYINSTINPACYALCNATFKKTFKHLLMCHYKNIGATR
T15 sequence (P35372 whole entry): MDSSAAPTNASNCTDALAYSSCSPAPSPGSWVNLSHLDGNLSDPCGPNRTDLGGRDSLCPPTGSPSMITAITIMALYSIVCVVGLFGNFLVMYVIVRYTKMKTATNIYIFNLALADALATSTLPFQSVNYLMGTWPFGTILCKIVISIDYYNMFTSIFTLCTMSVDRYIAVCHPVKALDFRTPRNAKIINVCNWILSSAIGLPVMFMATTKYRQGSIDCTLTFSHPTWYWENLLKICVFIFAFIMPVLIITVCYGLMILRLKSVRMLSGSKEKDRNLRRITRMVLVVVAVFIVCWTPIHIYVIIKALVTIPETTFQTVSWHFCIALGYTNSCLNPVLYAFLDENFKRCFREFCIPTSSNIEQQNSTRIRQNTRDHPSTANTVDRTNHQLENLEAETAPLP

CC(C)CCN[C@@H]1CCc2cc(O)c(N3CC(=O)NS3(=O)=O)c(F)c2C1 [AC484, ABBV-CLS-484]
> 0.01 mM: all assays above
